Measured values from patent publication US11707440B2 (priority 2017, dated 2023).
Like-named read-outs stand apart in the source and are kept apart here.

Key:
[1] = test system: subjects with MDD at imminent risk for suicide; assay: MADRS total score, study […]2001; type: in vivo, human; conditions: ITT analysis set; for MADRS total score change, Diff. of LS Means (SE) minus placebo: ANCOVA LOCF
Excerpt: Primary efficacy variable/Primary Time point: Change from baseline (Day 1, predose) to Day 1, 4-hours postdose in MADRS total score. The MADRS consists of 10 items that cover all of the core depressive symptoms, with each item scoring from 0 (item is not present or is normal) to 6 (severe or continuous presence of the symptom). A higher score represents a more severe condition.
The primary efficacy endpoint is the change in MADRS total score from baseline to Day 1: 4-hours postdose. MADRS total scores range from 0 to 60. […] As this is a phase 2a proof-of-concept study, statistical significance is based on a two-sided alpha level of 0.20. All p-values presented in this document are two-sided.

[2] = test system: subjects with MDD at imminent risk for suicide; assay: Sustained response, response and remission based on MADRS, […]2001; type: in vivo, human; conditions: at least 50 percent reduction from baseline with onset on Day 1 maintained through Day 25; ITT analysis set
Excerpt: • a. Changes from baseline to Day 2 and Day 25 for the MADRS total score • b. Changes from baseline to Day 1 4-hours postdose, Day 2 and Day 25 for the MADRS Suicide Item • c. Changes from baseline to Day 1 4-hours postdose, Day 2, and Day 25 for the clinical global judgment of suicide risk from the Suicide Ideation and Behavior Assessment Tool (SIBAT) • d. Sustained response (Onset of Clinical Response) defined as at least 50% reduction from baseline in MADRS total score with onset on Day 1 that is maintained through the end of the double-blind phase (Day 25) • e. Changes from baseline to Day 1 4-hours postdose, Day 2, and Day 25 for the Beck Scale for Suicidal Ideation (BSS) • f. Changes from baseline to Day 1 4-hours postdose and Day 25 for the Beck Hopelessness Scale
Sustained response is defined as at least 50% reduction from baseline in MADRS total score with onset on Day 1: 4 hours postdose that is maintained through the end of the double-blind phase (Day 25). Four subjects in the esketamine 84 mg group and 2 subjects in the placebo group had sustained response throughout the double-blind phase.

[3] = test system: subjects with MDD at imminent risk for suicide; assay: Beck Scale for Suicidal Ideation (BSS), […]2001; type: in vivo, human; conditions: for BSS total score change, Diff. of LS Means (SE) minus placebo: ANCOVA LOCF
Procedure: The BSS is a 21-item self-reported instrument to detect and measure the severity of suicidal ideation in adults and adolescents aged 17 years and older. The BSS total score represents the severity of suicide ideation, and it is calculated by summing the ratings of the first 19 items; the total score ranges from 0 to 38, with a higher score representing greater suicide ideation. Increasing scores reflect increases in suicidal risk.

[4] = test system: subjects with MDD at imminent risk for suicide; conditions: double-blind phase, safety analysis set
[5] = Baseline(DB), predose Day 1, ITT analysis set
[6] = Day 1(DB): 4H, LOCF, ITT analysis set
[7] = Day 2(DB), LOCF, ITT analysis set
[8] = End Point(DB), LOCF, ITT analysis set
[9] = TEAE in ≥5% of subjects in any treatment group
[10] = TEAE leading to study discontinuation

## CN[C@]1(c2ccccc2Cl)CCCCC1=O [Esketamine 84 mg]
[1]; Baseline(DB), predose Day 1
  MADRS total score, Mean (SD): 38.5 (6.17)
  MADRS total score, Median (Range): 38.0 (27; 49)
[1]; Day 1(DB): 4H
  MADRS total score change, Diff. of LS Means (SE) minus placebo: −5.3 (2.10)
[1]; Day 1(DB): 4H, LOCF
  MADRS total score change from baseline, Mean (SD): −13.4 (9.03)
  MADRS total score change from baseline, Median (Range): −14.0 (−32; 1)
  MADRS total score, Median (Range): 23.0 (7; 48)
[1]; Day 2(DB)
  MADRS total score change, Diff. of LS Means (SE) minus placebo: −7.2 (2.85)
[1]; Day 2(DB), LOCF
  MADRS total score change from baseline, Mean (SD): −19.3 (12.02)
  MADRS total score change from baseline, Median (Range): −19.0 (−41; 1)
  MADRS total score, Median (Range): 18.0 (3; 42)
[1]; End Point(DB)
  MADRS total score change, Diff. of LS Means (SE) minus placebo: −4.5 (3.14)
[1]; End Point(DB), LOCF
  MADRS total score change from baseline, Mean (SD): −26.4 (14.52)
  MADRS total score change from baseline, Median (Range): −25.0 (−46; 13)
  MADRS total score, Median (Range): 8.0 (0; 44)
[2]
  Day 25 sustained response based on MADRS total score: No: 30 (88.2%) subjects (%)
  Day 25 sustained response based on MADRS total score: Yes: 4 (118%) subjects (%)
[3]; [5]
  BSS total score, Mean (SD): 24.0 (5.45)
  BSS total score, Median (Range): 25.0 (8; 33)
[3]; Day 1(DB): 4H
  BSS total score change, Diff. of LS Means (SE) minus placebo: −2.3 (2.29)
[3]; [6]
  BSS total score change from baseline, Mean (SD): −10.2 (9.74)
  BSS total score change from baseline, Median (Range): −8.0 (−33; 8)
  BSS total score, Median (Range): 16.5 (0; 31)
[3]; Day 2(DB)
  BSS total score change, Diff. of LS Means (SE) minus placebo: −1.9 (2.30)
[3]; [7]
  BSS total score, Mean (SD): 11.1 (10.12)
  BSS total score, Median (Range): 13.0 (0; 34)
[3]; End Point(DB)
  BSS total score change, Diff. of LS Means (SE) minus placebo: −1.7 (2.15)
[3]; [8]
  BSS total score change from baseline, Median (Range): −21.0 (−33; 8)
  BSS total score, Mean (SD): 4.7 (9.03)
  BSS total score, Median (Range): 0.0 (0; 34)
[4]; [9]
  Abdominal pain: 0 no. subjects (%)
  Acne: 2 (5.7%) no. subjects (%)
  Agitation: 3 (8.6%) no. subjects (%)
  Anxiety: 6 (17.1%) no. subjects (%)
  Blepharospasm: 0 no. subjects (%)
  Blood pressure increased: 2 (5.7%) no. subjects (%)
  Constipation: 0 no. subjects (%)
  Diarrhea: 3 (8.6%) no. subjects (%)
  Diplopia: 2 (5.7%) no. subjects (%)
  Dissociation: 11 (31.4%) no. subjects (%)
  Dizziness: 12 (34.3%) no. subjects (%)
  Dizziness postural: 2 (5.7%) no. subjects (%)
  Dry mouth: 3 (8.6%) no. subjects (%)
  Dysgeusia: 11 (31.4%) no. subjects (%)
  Ear and labyrinth disorders: 9 (25.7%) no. subjects (%)
  Epistaxis: 0 no. subjects (%)
  Euphoric mood: 4 (11.4%) no. subjects (%)
  Eye disorders: 7 (20.0%) no. subjects (%)
  Fatigue: 2 (5.7%) no. subjects (%)
  Feeling abnormal: 3 (8.6%) no. subjects (%)
  Feeling cold: 2 (5.7%) no. subjects (%)
  Flatulence: 1 (2.9%) no. subjects (%)
  Gastrointestinal disorders: 19 (54.3%) no. subjects (%)
  General disorders and administration site conditions: 10 (28.6%) no. subjects (%)
  Headache: 11 (31.4%) no. subjects (%)
  Hyperacusis: 2 (5.7%) no. subjects (%)
  Hyperhidrosis: 2 (5.7%) no. subjects (%)
  Hypoesthesia: 3 (8.6%) no. subjects (%)
  Hypoesthesia oral: 2 (5.7%) no. subjects (%)
  Infections and infestations: 1 (2.9%) no. subjects (%)
  Insomnia: 3 (8.6%) no. subjects (%)
  Intranasal paranesthesia: 0 no. subjects (%)
  Investigations: 5 (14.3%) no. subjects (%)
  Nasal congestion: 1 (2.9%) no. subjects (%)
  Nasal discomfort: 3 (8.6%) no. subjects (%)
  Nausea: 13 (37.1%) no. subjects (%)
  Nervous system disorders: 25 (71.4%) no. subjects (%)
  Oropharyngeal pain: 2 (5.7%) no. subjects (%)
  Panic attack: 0 no. subjects (%)
  Paresthesia: 6 (17.1%) no. subjects (%)
  Paresthesia oral: 2 (5.7%) no. subjects (%)
  Pharyngeal hypoesthesia: 2 (5.7%) no. subjects (%)
  Pollakiuria: 0 no. subjects (%)
  Psychiatric disorders: 20 (57.1%) no. subjects (%)
  Rash: 1 (2.9%) no. subjects (%)
  Renal and urinary disorders: 1 (2.9%) no. subjects (%)
  Respiratory, thoracic and mediastinal disorders: 9 (25.7%) no. subjects (%)
  Rhinalgia: 0 no. subjects (%)
  Rhinorrhoea: 0 no. subjects (%)
  Sedation: 6 (17.1%) no. subjects (%)
  Skin and subcutaneous tissue disorders: 5 (14.3%) no. subjects (%)
  Somnolence: 4 (11.4%) no. subjects (%)
  Suicidal ideation: 2 (5.7%) no. subjects (%)
  Throat irritation: 3 (8.6%) no. subjects (%)
  Tinnitus: 2 (5.7%) no. subjects (%)
  Toothache: 0 no. subjects (%)
  Upper respiratory tract infection: 0 no. subjects (%)
  Vertigo: 4 (11.4%) no. subjects (%)
  Vision blurred: 3 (8.6%) no. subjects (%)
  Vomiting: 7 (20.0%) no. subjects (%)
  Weight increased: 2 (5.7%) no. subjects (%)
[4]; [10]
  Aggression: 1 (2.9%) no. subjects (%)
  Agitation: 1 (2.9%) no. subjects (%)
  Cardiac disorders: 1 (2.9%) no. subjects (%)
  Dissociative disorder: 0 no. subjects (%)
